Assay [1] can be described thus: Antiproliferative activity against BAEC after 3 days by coulter counter analysis. As to conditions: Bos taurus, 72 h. The class given is functional.
A short description of assay [2]: Antiproliferative activity against HMEC1 after 4 days by coulter counter analysis. It is filed as functional. As to conditions: Homo sapiens, HMEC-1, 96 h.
Another assay relates to HeLa. Description: Antiproliferative activity against human HeLa cells after 4 days by coulter counter analysis. The class given is functional, cell-based. As to conditions: 96 h.
Another assay has as its system CCRF-CEM. Briefly: Antiproliferative activity against human CEM cells after 48 to 96 hrs by coulter counter analysis. The class given is functional, cell-based.
Assay [3] in a line: Antiproliferative activity against MBEC after 3 days by coulter counter analysis. The class given is functional, Mus musculus.
The subject of a further assay is L1210. Briefly: Antiproliferative activity against mouse L1210 cells after 48 to 96 hrs by coulter counter analysis. The class given is functional, cell-based.
For assay [4], the target named is T1, Tubulin (Bos taurus) (UniProt Q6B856+Q862L2+Q862F3). Briefly: Displacement of R-PT from calf brain tubulin at 25 degC by fluorescence spectroscopic analysis.
For assay [5], the target named is T1, Tubulin (Bos taurus). Description: Displacement of MTC from calf brain tubulin colchicine binding site at 20 uM by fluorescence spectroscopic analysis.

pIC50: −log10 of the molar value. Active and inactive are the calls of the source. The calls are words filed in the database; no cut-off is given here.

For `CC(Nc1ccccc1Cl)=C1C(=O)CC(c2ccccc2)CC1=O` (stereo not given), the negative logarithm of the IC50 (pIC50) – broadly, the negative decadic logarithm of the IC50, by convention in mol/L – in assay [1] was 6.54; in assay [2] it was 6.25; in the assay on HeLa it was 6.15; with CCRF-CEM it was 6.19; in assay [3], 6.33; in the assay with L1210 it was 6.15.
In the case of `CCC(Nc1ccc(O)cc1)=C1C(=O)CC(c2ccccc2)CC1=O` (stereo not given), the negative-log IC50 (pIC50) in assay [1] was 4.44; in assay [2] it was 4.55; in the assay on HeLa, 4.10; in the assay with CCRF-CEM, 4.47; in assay [3] it was 4.74; with L1210 it was 4.85.
For `CCC(Nc1cccc(O)c1)=C1C(=O)CC(c2ccccc2)CC1=O` (stereo not given), the pIC50 in assay [1] was 5.11; in assay [2] it was 4.89; in the assay with HeLa, 4.12; in the assay on CCRF-CEM it was 4.32; in assay [3], 4.92; with L1210, 4.82.
As for `COc1ccccc1NC(C)=C1C(=O)CC(c2cccc(C)c2)CC1=O` (stereo not given), the negative logarithm of the IC50 (pIC50) was 6.59 in assay [1]; 6.48 in assay [2]; 6.10 with HeLa; 6.51 in the assay with CCRF-CEM; 6.38 in assay [3]; 6.77 with L1210.
As for `CCC(Nc1ccc(OC)cc1)=C1C(=O)CC(c2ccccc2)CC1=O` (stereo not given), the pIC50 was at most 4.00 in assay [1]; at most 4.00 in assay [2]; at most 4.00 in the assay on HeLa; 4.17 with CCRF-CEM; 4.24 in assay [3]; 4.24 with L1210.
`CC(Nc1ccccc1F)=C1C(=O)CC(c2ccccc2)CC1=O` (stereo not given): the pIC50 was 6.29 in assay [1]; 6.03 in assay [2]; 5.47 in the assay on HeLa; 5.96 in the assay with CCRF-CEM; 6.00 in assay [3]; 5.72 with L1210.
For the compound `COc1ccccc1NC(C)=C1C(=O)CC(c2ccccc2C)CC1=O` (stereo not given), the negative logarithm of the IC50 (pIC50) is 5.49 in assay [1]; 5.24 in assay [2]; 4.89 in the assay with HeLa; 5.14 in the assay with CCRF-CEM; 5.17 in assay [3]; 4.96 with L1210.
As to `COc1ccccc1NC(C)=C1C(=O)CC(C)(C)CC1=O`, the negative logarithm of the IC50 (pIC50) in assay [1] was 4.32; in assay [2], 4.12; in the assay on HeLa it was under 4.00; with CCRF-CEM it was under 4.00; in assay [3] it was 4.15; with L1210 it was under 4.00.
With `COc1ccccc1NC(C)=C1C(=O)CC(C2CCCCC2)CC1=O` (stereo not given), the negative logarithm of the IC50 (pIC50) is 4.92 in assay [1]; 4.92 in assay [2]; 4.96 in the assay on HeLa; 4.82 in the assay with CCRF-CEM; 4.68 in assay [3]; under 5.10 with L1210.
With `CCC(Nc1ccccc1OC)=C1C(=O)CC(c2ccccc2)CC1=O` (stereo not given), the pIC50 is 5.92 in assay [1]; 5.85 in assay [2]; 5.37 in the assay with HeLa; 5.64 with CCRF-CEM; 5.85 in assay [3]; 5.82 in the assay with L1210. The compound further registered a Ka on Tubulin (Bos taurus) [4] of 7.1 ×10⁶ /M. The inhibition entry on Tubulin (Bos taurus) [5] is “Active”.
Consider `CCC(Nc1ccccc1C)=C1C(=O)CC(c2ccccc2)CC1=O` (stereo not given), for which the pIC50 is 5.66 in assay [1]; 5.68 in assay [2]; 5.04 with HeLa; 5.20 with CCRF-CEM; 5.55 in assay [3]; 5.16 in the assay with L1210.
For `COc1cccc(OC)c1NC(C)=C1C(=O)CC(c2ccccc2)CC1=O` (stereo not given), the negative-log IC50 (pIC50) in assay [1] is 6.34; in assay [2] it was 5.85; in the assay with HeLa, 5.96; in the assay with CCRF-CEM, 5.85; in assay [3], 5.92; in the assay with L1210, 6.00.
Turning to `COc1ccccc1NC(C)=C1C(=O)CC(c2c(F)cccc2F)CC1=O` (stereo not given), the negative-log IC50 (pIC50) in assay [1] is under 4.00; in assay [2], 4.41; with HeLa, under 4.00; with CCRF-CEM, under 4.00; in assay [3], 4.22; with L1210 it was under 4.00.
In the case of `COc1ccccc1NC(C)=C1C(=O)CC(Cc2ccccc2)CC1=O` (stereo not given), the negative-log IC50 (pIC50) in assay [1] was under 4.00; in assay [2], 4.66; in the assay on HeLa it was under 4.00; with CCRF-CEM it was under 4.00; in assay [3], 4.06; in the assay on L1210, under 4.00.
`CCC(Nc1ccc2c(c1)OCO2)=C1C(=O)CC(c2ccccc2)CC1=O` (stereo not given): the pIC50 was 4.37 in assay [1]; 4.28 in assay [2]; 4.12 in the assay with HeLa; 4.28 in the assay on CCRF-CEM; 4.30 in assay [3]; 4.42 in the assay with L1210.
With `CCC(Nc1ccc(OC)c(OC)c1)=C1C(=O)CC(c2ccccc2)CC1=O` (stereo not given), the negative-log IC50 (pIC50) (in assay [1]; in assay [2]; in the assay on HeLa; in the assay with CCRF-CEM; in assay [3]; in the assay with L1210) was under 4.00 throughout.
Turning to `COc1ccccc1NC(C)=C1C(=O)CC(c2c(C)cccc2C)CC1=O` (stereo not given), the negative logarithm of the IC50 (pIC50) in assay [1] is 4.39; in assay [2], 4.46; in the assay with HeLa, 4.26; with CCRF-CEM it was 4.64; in assay [3], 4.41; in the assay with L1210 it was 4.62.
As to `COc1ccccc1NC(C)=C1C(=O)CC(c2ccccc2F)CC1=O` (stereo not given), the pIC50 in assay [1] was 5.57; in assay [2] it was 5.37; in the assay with HeLa, 5.32; in the assay with CCRF-CEM it was 5.31; in assay [3], 5.27; in the assay on L1210 it was 5.20.
With `CC(Nc1cccc(F)c1F)=C1C(=O)CC(c2ccccc2)CC1=O` (stereo not given), the pIC50 is 4.85 in assay [1]; 5.00 in assay [2]; 4.44 in the assay with HeLa; 4.60 in the assay with CCRF-CEM; 4.92 in assay [3]; 4.72 with L1210.
As for `COc1cccc(C2CC(=O)C(=C(C)Nc3ccccc3C)C(=O)C2)c1` (stereo not given), the negative logarithm of the IC50 (pIC50) is 6.32 in assay [1]; 6.17 in assay [2]; 6.18 with HeLa; 6.14 in the assay on CCRF-CEM; 6.19 in assay [3]; 6.59 with L1210.
Take `COc1ccccc1NC(C)=C1C(=O)CC(c2ccc(F)cc2)CC1=O` (stereo not given): the pIC50 is 5.77 in assay [1]; 5.74 in assay [2]; 5.40 in the assay with HeLa; 5.28 in the assay on CCRF-CEM; 5.68 in assay [3]; 5.48 in the assay on L1210.
For `CCCC(Nc1ccccc1C)=C1C(=O)CC(c2ccccc2)CC1=O` (stereo not given), the pIC50 in assay [1] is 4.34; in assay [2], 4.36; with HeLa, under 4.00; in the assay with CCRF-CEM it was at most 4.00; in assay [3], 4.33; with L1210, 4.39.
Turning to `CCCC(Nc1ccccc1OC)=C1C(=O)CC(c2ccccc2)CC1=O` (stereo not given), the pIC50 in assay [1] is 4.80; in assay [2], 4.51; with HeLa, 4.23; in the assay on CCRF-CEM it was 4.39; in assay [3], 4.57; in the assay on L1210 it was 4.44.
Take `COc1ccccc1NC(C)=C1C(=O)CC(c2ccc(Cl)cc2)CC1=O` (stereo not given): the pIC50 was 4.38 in assay [1]; 4.26 in assay [2]; 4.24 in the assay on HeLa; 4.55 in the assay with CCRF-CEM; 4.34 in assay [3]; 4.66 in the assay on L1210.
In the case of `CCC(Nc1cccc(OC)c1)=C1C(=O)CC(c2ccccc2)CC1=O` (stereo not given), the negative logarithm of the IC50 (pIC50) was 4.19 in assay [1]; 4.74 in assay [2]; 4.18 in the assay on HeLa; 4.35 with CCRF-CEM; 4.80 in assay [3]; 4.49 with L1210.
As for `COc1ccc(OC)c(NC(C)=C2C(=O)CC(c3ccccc3)CC2=O)c1` (stereo not given), the negative-log IC50 (pIC50) in assay [1] is 5.59; in assay [2], 5.59; in the assay on HeLa, 4.34; in the assay on CCRF-CEM it was under 5.22; in assay [3] it was 5.49; in the assay with L1210, 4.44.
As for `CCC(Nc1cc(OC)c(OC)c(OC)c1)=C1C(=O)CC(c2ccccc2)CC1=O` (stereo not given), the negative logarithm of the IC50 (pIC50) (in assay [1]; in assay [2]; in the assay with HeLa; in the assay with CCRF-CEM; in assay [3]; in the assay on L1210) was under 4.00 throughout.
For the compound `CC(Nc1c(F)cccc1F)=C1C(=O)CC(c2ccccc2)CC1=O` (stereo not given), the pIC50 is 5.08 in assay [1]; 5.18 in assay [2]; 4.77 in the assay on HeLa; 4.68 in the assay with CCRF-CEM; 5.04 in assay [3]; 4.96 in the assay on L1210.
Turning to `COc1ccc(C2CC(=O)C(=C(C)Nc3ccccc3OC)C(=O)C2)cc1` (stereo not given), the negative-log IC50 (pIC50) (in assay [1]; in assay [2]; in the assay on HeLa; in the assay on CCRF-CEM; in assay [3]; in the assay with L1210) was under 4.00 each time.
`CC(Nc1ccccc1C(F)(F)F)=C1C(=O)CC(c2ccccc2)CC1=O` (stereo not given): the pIC50 in assay [1] was 5.09; in assay [2], 5.11; in the assay on HeLa, 4.49; in the assay with CCRF-CEM it was 4.74; in assay [3], 5.06; in the assay with L1210, 4.85.
In the case of `CCC(Nc1ccccc1)=C1C(=O)CC(c2ccccc2)CC1=O` (stereo not given), the pIC50 in assay [1] is 4.80; in assay [2], 4.82; in the assay on HeLa it was 4.25; in the assay on CCRF-CEM it was 4.68; in assay [3], 5.08; with L1210, 4.66.
On to `CC(Nc1ccccc1C)=C1C(=O)CC(c2cccc(O)c2)CC1=O` (stereo not given), for which the negative-log IC50 (pIC50) in assay [1] was 5.68; in assay [2], 5.66; in the assay with HeLa, 5.39; in the assay on CCRF-CEM, 5.21; in assay [3] it was 5.60; in the assay with L1210, 5.46.
On to `COc1ccccc1NC(C)=C1C(=O)CC(c2ccc(C)cc2)CC1=O` (stereo not given), for which the negative logarithm of the IC50 (pIC50) in assay [1] is 5.08; in assay [2], 4.96; in the assay on HeLa, 4.05; in the assay on CCRF-CEM, under 4.00; in assay [3] it was 5.04; in the assay on L1210 it was under 4.00.
